Measurements published in ChEMBL document CHEMBL1201862, “PubChem BioAssay data set” (2004).
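Method: 48-hour compound exposure of cells in 96-well plates, five concentrations, linear interpolation of endpoints. GI50 is the concentration that inhibits growth by half.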 Activity calls are given as the source filed them. No stated cut-off is given here; in the data, active = GI50 up to about 1.1 µM and inactive = higher.

Key:
Test in all cases: NCI anticancer screen, dose series, 48 h
[1] = test system: NCI-H522
[2] = test system: M14
[3] = test system: OVCAR-4
[4] = test system: TK-10
[5] = test system: RPMI-8226
[6] = test system: HOP-92
[7] = test system: HCT-15
[8] = test system: PC-3
[9] = test system: NCI/ADR-RES
[10] = test system: SNB-19
[11] = test system: 786-0
[12] = test system: CAKI-1
[13] = test system: LOX IMVI
[14] = test system: SF-295
[15] = test system: Hs-578T
[16] = test system: EKVX
[17] = test system: NCI-H23
[18] = test system: MOLT-4
[19] = test system: HL-60
[20] = test system: SR

Row | Compound | GI50 [1] | GI50 [2] | GI50 [3] | GI50 [4] | GI50 [5] | GI50 [6] | GI50 [7] [µM] | GI50 [8] | GI50 [9] | GI50 [10] | GI50 [11] | GI50 [12] | GI50 [13] | GI50 [14] | GI50 [15] | GI50 [16] | GI50 [17] | GI50 [18] | GI50 [19] | GI50 [20]
1 | Nc1nnnn1CCO | > 100 µM (inactive) | > 100 µM (inactive) | > 100 µM (inactive) | > 100 µM (inactive) | > 100 µM (inactive) | > 100 µM (inactive) | > 100 | > 100 µM (inactive) | > 100 µM (inactive) | > 100 µM (inactive) | > 100 µM (inactive) | > 100 µM (inactive) | > 100 µM (inactive) | > 100 µM (inactive) | > 100 µM (inactive) | > 100 µM (inactive) | > 100 µM (inactive) |  |  | 
2 | O=C1NC(=O)C2(CCCCCC2)N1 | > 100 µM (inactive) | > 100 µM (inactive) | > 100 µM (inactive) | > 100 µM (inactive) | > 100 µM (inactive) | > 100 µM (inactive) | > 100 | > 100 µM (inactive) | > 100 µM (inactive) | > 100 µM (inactive) | > 100 µM (inactive) | > 100 µM (inactive) | > 100 µM (inactive) | > 100 µM (inactive) | > 100 µM (inactive) | > 100 µM (inactive) | > 100 µM (inactive) | > 100 µM (inactive) |  | 
3 | COC(=O)c1ccc(NCc2c(O)ccc(O)c2Br)cc1Cl | 0.329 µM (active) | 17.5 µM (inactive) | 18.2 µM (inactive) |  | 3.56 µM (inactive) | 14.9 µM (inactive) | 16.6 | 13.8 µM (inactive) | 12.2 µM (inactive) | 25.9 µM (inactive) | 18.4 µM (inactive) | 15.8 µM (inactive) | 13 µM (inactive) | 18.9 µM (inactive) | 25.1 µM (inactive) | 14.6 µM (inactive) | 16.6 µM (inactive) | 1.36 µM (inactive) | 1.69 µM (inactive) | 
4 | CCOC(=O)c1c(C)n(Cc2ccccc2)c2c1cc(O)c1[nH]c3c(c12)CCCC3 | 1.16 µM (inactive) | 6.52 µM (inactive) | 1.07 µM (active) | 10.6 µM (inactive) | 2.14 µM (inactive) | < 0.01 µM (active) | 2.2 | 2.43 µM (inactive) | 4.72 µM (inactive) | 3.03 µM (inactive) | 16.1 µM (inactive) | 10.6 µM (inactive) | 4.85 µM (inactive) | 3.37 µM (inactive) | 2.25 µM (inactive) | 2.69 µM (inactive) | 10.4 µM (inactive) | 2.43 µM (inactive) | 2.41 µM (inactive) | 
5 | COc1ccc(Oc2nc3c(N)cc(C(F)(F)F)cc3nc2-c2ccccc2)cc1 |  | 13.3 µM (inactive) | > 100 µM (inactive) | 38.5 µM (inactive) | 63 µM (inactive) | 40.8 µM (inactive) | 31.6 | 19.8 µM (inactive) | 27.2 µM (inactive) | 36.1 µM (inactive) | 20.5 µM (inactive) | 21.8 µM (inactive) | 17.3 µM (inactive) | 18.5 µM (inactive) | 16.3 µM (inactive) | 12.8 µM (inactive) | 50.9 µM (inactive) | 42.2 µM (inactive) | 59.6 µM (inactive) | 19.9 µM (inactive)
6 | CCCCCCCCCCCCCCCC(=O)OC1C(O)C(O)C(O)C(O)C12CO2 (stereo not given) | 33 µM (inactive) | > 100 µM (inactive) | 55.1 µM (inactive) | > 100 µM (inactive) | 26.4 µM (inactive) | 14.3 µM (inactive) | 24.5 | 20.9 µM (inactive) | 46 µM (inactive) | > 100 µM (inactive) | 18.6 µM (inactive) | 13.6 µM (inactive) | 20.3 µM (inactive) | 70.1 µM (inactive) | 31.4 µM (inactive) | 22.7 µM (inactive) | 49.2 µM (inactive) | 12.2 µM (inactive) | 15.2 µM (inactive) | 
7 | COc1ccc([N+](=O)[O-])cc1[I+]c1cc([N+](=O)[O-])ccc1OC | 27 µM (inactive) | 39.6 µM (inactive) |  | 58.6 µM (inactive) | 23.7 µM (inactive) |  | 41.1 | 52 µM (inactive) | > 100 µM (inactive) | 34.9 µM (inactive) | > 100 µM (inactive) | 38.6 µM (inactive) | 29.4 µM (inactive) | 33.3 µM (inactive) | 91.6 µM (inactive) | 33.8 µM (inactive) | 55.1 µM (inactive) |  | 20.7 µM (inactive) | 12.3 µM (inactive)
8 | CC(=O)N(O)c1ccc(-c2nc3ccccc3s2)cc1 | 24.5 µM (inactive) | 85.7 µM (inactive) | 28.2 µM (inactive) | 80.7 µM (inactive) | 15 µM (inactive) | 64.4 µM (inactive) | > 100 | > 100 µM (inactive) | 28.4 µM (inactive) | 60 µM (inactive) | 55.1 µM (inactive) | 95.1 µM (inactive) | 63.4 µM (inactive) | 45.2 µM (inactive) | 32.7 µM (inactive) |  | > 100 µM (inactive) | 48.6 µM (inactive) |  | > 100 µM (inactive)
